# Assay results as given in patent publication US20230255970A1, “COMPOSITIONS AND METHODS FOR TREATING PROLIFERATIVE DISEASES” (The Broad Institute, Inc., priority 2020, published 2023).
# Entries after “also recorded” stand apart in the source; their conditions may differ. Where two headings read alike, the source gives them in different places.
# Legend:
# [1] = tested on: TAZ; details: HT29 cells, six hours; cited from earlier work
# [2] = tested on: TC32 human Ewing's family sarcoma cells; assay: Proliferation assay, TC32 cells; type: cell-based; details: 10 μM daily for 72 hours
# Description: (§1) YAP1 cell culture and treatments: Eisinger lab: Murine KP230 cells, a Yap1-dependent cancer cell line, were derived from a tumor from the KP mouse model (Kras^G12/D; Trp53^f/fl), as described in Eisinger-Mathason, T. S. K. et al., Proc. Natl. Acad. Sci. U.S.A 112 (2015): E3402-11, which is hereby incorporated by reference in its entirety. STS-109 UPS cells were derived from a human UPS tumor and validated by Rebecca Gladdy, MD (Sinai Health System, Toronto, Ontario, Canada). TC32 cells were a gift from Patrick Grohar, MD, PhD (Children's Hospital of Philadelphia). HT-1080, HCT-116, and HEK293T cells were purchased from ATCC. KP230, HT-1080, and HEK-293T cells were grown in DMEM with 10% FBS, 1% L-glutamine, and 1% penicillin/streptomycin (P/S). STS-109 cells were cultured in DMEM with 20% FBS, 1% L-glutamine, and 1% P/S. TC32 cells were grown in RPMI with 10% FBS, 1% L-glutamine, and 1% P/S. HCT-116 cells were cultured in McCoy's 5A medium with 10% FBS and 1% P/S. All cells were confirmed to be negative for mycoplasma contamination and were maintained in an incubator at 37C with 5% CO2. […]
# (§2) NB4A treatment: Cells were treated with 10 μM of each inhibitor or an equivalent volume of DMSO every 24 hours for 3-8 days, and counted with a hemocytometer with trypan blue exclusion daily (KP230, HT-1080, TC32, HCT-116), or every 2 days (STS-109).
# [3] = tested on: KP230, TC32, STS-109, HT-1080, HCT-116 cells; assay: Trypan blue staining toxicity in the proliferation assay cell lines; type: cell-based; details: all tested cell lines
# Procedure: as §2
# [4] = tested on: mouse sarcoma cells; assay: qRT-PCR of Yap1/NF-κB target genes in mouse sarcoma cells; type: cell-based; details: normalized to Hprt, Sdha, timecourse
# Procedure: Mouse sarcoma cells were treated with 1 μM of compound for 48 h. RNA was isolated and qRT-PCR was performed for known NF-κB targets and proliferation-associated targets (i.e., Ki67, FOXM1). Target genes used to assess NF-κB inhibition specific to the cancer contexts are evaluated. For example, to test the efficacy of these compounds against NF-κB transcriptional activity in […] cells, expression of PHLDA1, IER2, and LITAF is determined. Compounds that alter expression of NF-κB target genes are assessed in proliferation studies using UPS, head and neck, prostate, and breast cancer cell lines previously associated with NF-κB dependence. IC50 studies and Western blot analyses are performed to evaluate total or phosphorylated p65 levels. Small molecules are then assessed to determine their mechanism of action. […] FIGS. 4-6 provide timecourse graphs showing the relative expression normalized to housekeeping genes.
# [5] = tested on: KP230 cells; assay: qRT-PCR of Yap1 and target genes in KP230 cells; type: cell-based, mouse
# Description: as §1, with “(P/S).” for “(P/S). STS-109 cells were cultured in DMEM with 20% FBS, 1% L-glutamine, and 1% P/S. TC32 cells were grown in RPMI with 10% FBS, 1% L-glutamine, and 1% P/S. HCT-116 cells were cultured in McCoy's 5A medium with 10% FBS and 1% P/S. All cells were confirmed to be negative for mycoplasma contamination and were maintained in an incubator at 37C with 5% CO2.”
# YAP1-related qRT-PCR: Total RNA from cultured cells was isolated with the QIAGEN RNeasy mini kit, and cDNA was synthesized with the High-Capacity RNA-to-cDNA kit (Life Technologies). qRT-PCR analysis was performed with TaqMan “best coverage” probes on a ViiA7 instrument. […] Relative expression was calculated using the ddCt method.
# [6] = tested on: KP230 cells; assay: Proliferation assay, KP230 cells; type: cell-based, mouse; details: 10 μM daily for 72 hours
# Description: YAP1 cell culture and treatments: Eisinger lab: Murine KP230 cells, a Yap1-dependent cancer cell line, were derived from a tumor from the KP mouse model (Kras^G12/D; Trp53^f/fl), as described in Eisinger-Mathason, T. S. K. et al., Proc. Natl. Acad. Sci. U.S.A 112 (2015): E3402-11, which is hereby incorporated by reference in its entirety. STS-109 UPS cells were derived from a human UPS tumor and validated by Rebecca Gladdy, MD (Sinai Health System, Toronto, Ontario, Canada). TC32 cells were a gift from Patrick Grohar, MD, PhD (Children's Hospital of Philadelphia). HT-1080, HCT-116, and HEK293T cells were purchased from ATCC. KP230, HT-1080, and HEK-293T cells were grown in DMEM with 10% FBS, 1% L-glutamine, and 1% penicillin/streptomycin (P/S). STS-109 cells were cultured in DMEM with 20% FBS, 1% L-glutamine, and 1% P/S. TC32 cells were grown in RPMI with 10% FBS, 1% L-glutamine, and 1% P/S. HCT-116 cells were cultured in McCoy's 5A medium with 10% FBS and 1% P/S. All cells were confirmed to be negative for mycoplasma contamination and were maintained in an incubator at 37C with 5% CO2. For experimental purposes, cells were cultured for up to 20 passages before being discarded, and were grown to approximately 50% confluence to circumvent the effects of high cell density on Yap1 expression and activity. All cell lines in the Eisinger laboratory were treated with 10 μM of each inhibitor or an equivalent volume of DMSO every 24 hours for 3 days, except for STS-109 cells, which were treated daily for 8 days.
# as §2
# [7] = tested on: TEAD luciferase reporter; assay: YAP1-responsive TEAD luciferase reporter assay in HEK293T cells; type: cell-based; details: 10 μM, 48 h, HEK-293 cells
# Procedure: A TEAD luciferase reporter was co-transfected with or without a Yap expression construct into HEK293T cells followed by treatment for 48 hours with DMSO or the indicated compounds. The data shown are the average of three samples within a representative experiment.
# YAP1-related reporter assay: HEK293T cells were co-transfected using Lipofectamine 3000 (Thermo Fisher) with a TEAD luciferase reporter construct, 8×GTIIC-luciferase (Addgene plasmid #34615), a plasmid expressing Renilla Luciferase from a CMV promoter as a transfection control, along with a plasmid expressing 3×Flag-tagged wild-type YAP1 from a CMV promoter (pCMV5 backbone). Following transfection the cells were immediately treated with 0.2% DMSO, 10 μM NB4A, BRD-K34692511 or BRD-K28862419 and then lysed 48 hours later. Lysates were examined using the Dual-Luciferase Reporter Assay System (Promega) according to the manufacturer's protocol and measured using a SpectraMax iD3 plate reader (Molecular Devices). Firefly Luciferase activity from the TEAD reporter was normalized to Renilla Luciferase activity and then plotted as relative values.
# [8] = tested on: YAP1 overexpression in U2OS cells; assay: Cell Painting morphological profile matching to YAP1/TAZ overexpression signature; type: cell-based, human
# In short: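 Morphological profiles from Cell Painting (six fluorescent labels) in a single cell line at one time point, standardized plate-wise against control mean and SD, replicate profiles averaged feature-wise. Gene and compound signatures scored by Pearson correlation, large positive or negative correlations counted as matches.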
# [9] = tested on: YAP1 mRNA; details: cited from earlier work
smiles,measurement,setting,value
"c1ccc(CNc2ncnc3ccccc23)cc1 [BRD-K43796186, N-benzylquinazolin-4-amine]",TAZ mRNA z-score,[1],2.04
same,proliferation,[2],inhibited the proliferation
same,toxicity by trypan blue staining,[3],did not exhibit overt toxicity
same,Ccl2 expression,[4],significantly decreased
same,Foxm1 expression,[4],reduced
same,Yap1 gene expression,[4]; listed as NB4A,not affected; also recorded: not effected
same,"transcription of Yap1, its sarcoma target genes (Foxm1, Ccl2, Hbegf, Birc5, Rela) and Amot",[5],did not regulate transcription
same,proliferation,[6],inhibited the proliferation
same,YAP1-responsive (TEAD) reporter activity,[7],no effect
same,Cell Painting profile correlation with YAP1 overexpression,[8],0.46
same,Corr. to YAP1 cluster,"[8]; Pearson correlation of Cell Painting signatures, U2OS cells",0.4622
same,YAP1 mRNA z-score,"[9]; A375 cells, 6 and 24 hours",~-0.7
same,YAP1 mRNA z-score,"[9]; HT29 cells, six hours",3.16
same,YAP1 mRNA,[9]; most cell types in the Connectivity Map,unaffected
